Data: patent publication US7964531B2, “3-phenoxy-4-pyridazinol derivatives and herbicidal composition containing the same” (Mitsui Chemicals Agro, Inc., priority 2001, dated 2011)

Columns and labels:
Format in all cases: in vivo
Cyperus esculentus L. [1] = assay: Test Example 5: herbicidal effects, upland (soil treatment); settings: after 21 days
Description: (§1) Upland soil was filled in 150 cm^2 pot, and seeds of barnyardgrass, Cyperus esculentus L., velvetleaf, black nightshade, tall morningglory and corn were sowed, and grown in a greenhouse. At the next day of seeding, a predetermined chemical dosage of the wettable powder prepared in accordance with Preparation example 5 was diluted with water and applied to soil surface. After 21 days from the treatment, herbicidal effects and crop injury against corn were judged according to the following judgment standard, and the results were shown in Tables 6 to 8.
(§2) Judgment Standard • 0: Growth inhibition rate; 0 to 9% • 1: Growth inhibition rate; 10 to 19% • 2: Growth inhibition rate; 20 to 29% • 3: Growth inhibition rate; 30 to 39% • 4: Growth inhibition rate; 40 to 49% • 5: Growth inhibition rate; 50 to 59% • 6: Growth inhibition rate; 60 to 69% • 7: Growth inhibition rate; 70 to 79% • 8: Growth inhibition rate; 80 to 89% • 9: Growth inhibition rate; 90 to 98% • 10: Growth inhibition rate; 99 to 100%.

barnyardgrass [2] = assay: as above; settings: after 21 days
Description: as §1, §2

black nightshade [3] = assay: as above; settings: after 21 days
Description: as §1, §2

tall morningglory [4] = assay: as above; settings: after 21 days
Description: as §1, §2

velvetleaf [5] = assay: as above; settings: after 21 days
Description: as §1, §2

corn [6] = assay: Test Example 5: crop injury against corn (soil treatment); settings: after 21 days
Description: as §1, §2

Cyperus esculentus L. [7] = assay: Test Example 6: herbicidal effects, upland (foliar treatment); settings: after 14 days
Description: as §2
(§3) Upland soil was filled in 150 cm^2 pot, and seeds of barnyardgrass, Cyperus esculentus L., velvetleaf, black nightshade, tall morningglory and corn were sowed, and grown in a greenhouse. After the weeds were grown with 10 to 15 cm or so, a predetermined chemical dosage of the wettable powder prepared in accordance with Preparation example 5 was diluted with water containing 0.05% of GRAMIN S and applied as a foliar treatment. After 14 days from the treatment, herbicidal effects and crop injury were judged in accordance with the judgment standard of Test example 5, and the results were shown in Tables 9 and 10. Incidentally, “-” in the table means no effective ingredient was contained.

barnyardgrass [8] = assay: as above; settings: after 14 days
Description: as §2, §3

black nightshade [9] = assay: as above; settings: after 14 days
Description: as §2, §3

tall morningglory [10] = assay: as above; settings: after 14 days
Description: as §2, §3

velvetleaf [11] = assay: as above; settings: after 14 days
Description: as §2, §3

corn [12] = assay: Test Example 6: crop injury against corn (foliar treatment); settings: after 14 days
Description: as §2, §3

CS(=O)(=O)c1ccc(C(=O)C2C(=O)CCCC2=O)c([N+](=O)[O-])c1 [Compound F, 2-(4-mesyl-2-nitrobenzoyl)cyclohexan-1,3-dione]
Herbicidal effects Cyperus esculentus (Cyperus esculentus L. [1]; F alone 25 g/ha): 8 (Growth inhibition rate; 80 to 89%)
Herbicidal effects Cyperus esculentus (Cyperus esculentus L. [1]; F alone 50 g/ha): 9 (Growth inhibition rate; 90 to 98%)
Herbicidal effects Cyperus esculentus (Cyperus esculentus L. [1]; F alone 100 g/ha): 9 (Growth inhibition rate; 90 to 98%)
Herbicidal effects Barnyard grass (barnyardgrass [2]; F alone 25 g/ha): 4 (Growth inhibition rate; 40 to 49%)
Herbicidal effects Barnyard grass (barnyardgrass [2]; F alone 50 g/ha): 8 (Growth inhibition rate; 80 to 89%)
Herbicidal effects Barnyard grass (barnyardgrass [2]; F alone 100 g/ha): 9 (Growth inhibition rate; 90 to 98%)
Herbicidal effects Black Nightshade (black nightshade [3]; F alone 25 g/ha): 6 (Growth inhibition rate; 60 to 69%)
Herbicidal effects Black Nightshade (black nightshade [3]; F alone 50 g/ha): 3 (Growth inhibition rate; 30 to 39%)
Herbicidal effects Black Nightshade (black nightshade [3]; F alone 100 g/ha): 8 (Growth inhibition rate; 80 to 89%)
Herbicidal effects Tall Morningglory (tall morningglory [4]; F alone 25 g/ha): 2 (Growth inhibition rate; 20 to 29%)
Herbicidal effects Tall Morningglory (tall morningglory [4]; F alone 50 g/ha): 5 (Growth inhibition rate; 50 to 59%)
Herbicidal effects Tall Morningglory (tall morningglory [4]; F alone 100 g/ha): 8 (Growth inhibition rate; 80 to 89%)
Herbicidal effects Velvetleaf (velvetleaf [5]; F alone 25 g/ha): 9 (Growth inhibition rate; 90 to 98%)
Herbicidal effects Velvetleaf (velvetleaf [5]; F alone 50 g/ha): 10 (Growth inhibition rate; 99 to 100%)
Herbicidal effects Velvetleaf (velvetleaf [5]; F alone 100 g/ha): 10 (Growth inhibition rate; 99 to 100%)
Crop ijury against corn (corn [6]; F alone 25 g/ha): 0 (Growth inhibition rate; 0 to 9%)
Crop ijury against corn (corn [6]; F alone 50 g/ha): 0 (Growth inhibition rate; 0 to 9%)
Crop ijury against corn (corn [6]; F alone 100 g/ha): 0 (Growth inhibition rate; 0 to 9%)
Herbicidal effects Cyperus esculentus (Cyperus esculentus L. [7]; F alone 25 g/ha): 4 (Growth inhibition rate; 40 to 49%)
Herbicidal effects Cyperus esculentus (Cyperus esculentus L. [7]; F alone 50 g/ha): 5 (Growth inhibition rate; 50 to 59%)
Herbicidal effects Cyperus esculentus (Cyperus esculentus L. [7]; F alone 100 g/ha): 6 (Growth inhibition rate; 60 to 69%)
Herbicidal effects Barnyard grass (barnyardgrass [8]; F alone 25 g/ha): 0 (Growth inhibition rate; 0 to 9%)
Herbicidal effects Barnyard grass (barnyardgrass [8]; F alone 50 g/ha): 0 (Growth inhibition rate; 0 to 9%)
Herbicidal effects Barnyard grass (barnyardgrass [8]; F alone 100 g/ha): 2 (Growth inhibition rate; 20 to 29%)
Herbicidal effects Black Nightshade (black nightshade [9]; F alone 25 g/ha): 7 (Growth inhibition rate; 70 to 79%)
Herbicidal effects Black Nightshade (black nightshade [9]; F alone 50 g/ha): 10 (Growth inhibition rate; 99 to 100%)
Herbicidal effects Black Nightshade (black nightshade [9]; F alone 100 g/ha): 9 (Growth inhibition rate; 90 to 98%)
Herbicidal effects Tall Morningglory (tall morningglory [10]; F alone 25 g/ha): 2 (Growth inhibition rate; 20 to 29%)
Herbicidal effects Tall Morningglory (tall morningglory [10]; F alone 50 g/ha): 5 (Growth inhibition rate; 50 to 59%)
Herbicidal effects Tall Morningglory (tall morningglory [10]; F alone 100 g/ha): 9 (Growth inhibition rate; 90 to 98%)
Herbicidal effects Velvetleaf (velvetleaf [11]; F alone 25 g/ha): 9 (Growth inhibition rate; 90 to 98%)
Herbicidal effects Velvetleaf (velvetleaf [11]; F alone 50 g/ha): 10 (Growth inhibition rate; 99 to 100%)
Herbicidal effects Velvetleaf (velvetleaf [11]; F alone 100 g/ha): 10 (Growth inhibition rate; 99 to 100%)
Crop injury against corn (corn [12]; F alone 25 g/ha): 0 (Growth inhibition rate; 0 to 9%)
Crop injury against corn (corn [12]; F alone 50 g/ha): 0 (Growth inhibition rate; 0 to 9%)
Crop injury against corn (corn [12]; F alone 100 g/ha): 0 (Growth inhibition rate; 0 to 9%)
